Measurements from patent US20240018161A1, “MODULATORS OF CYSTIC FIBROSIS TRANSMEMBRANE CONDUCTANCE REGULATOR” (VERTEX PHARMACEUTICALS INCORPORATED, priority 2020, published 2024).

What was measured:
[1] = target: T1, CFTR-mediated chloride transport in human intestinal epithelial enteroid cells (Homo sapiens, UniProt P13569); experiment: Membrane potential dye, Enteroid Assay B; format: cell-based; details: Enteroid Assay B; for EC50: read-out: Ent. B EC50
Experimental: Base medium (ADF+++) consisted of Advanced DMEM/Ham's F12, 2 mM Glutamax, 10 mM HEPES, […] penicillin/streptomycin.
Bath 1 Buffer consisted of 1 mM MgCl2, 160 mM NaCl, 4.5 mM KCl, 10 mM HEPES, 10 mM Glucose, 2 mM CaCl2.
Chloride Free Buffer consisted of 1 mM Magnesium Gluconate, 2 mM Calcium Gluconate, 4.5 mM Potassium Gluconate, 160 mM Sodium Gluconate, 10 mM HEPES, 10 mM Glucose.
Bath1 Dye Solution consisted of Bath 1 Buffer, 0.04% Pluronic F127, 20 μM Methyl Oxonol, 30 μM CaCCinh-A01, 30 μM Chicago Sky Blue.
Chloride Free Dye Solution consisted of Chloride Free Buffer, 0.04% Pluronic F127, 20 μM Methyl Oxonol, 30 μM CaCCinh-A01, 30 μM Chicago Sky Blue.
3. Enteroid Cell Harvesting and Seeding
Cells were recovered in cell recovery solution, collected by centrifugation at 650 rpm for 5 min at 4° C., resuspended in TryPLE and incubated for 5 min at 37° C. Cells were then collected by centrifugation at 650 rpm for 5 min at 4° C. and resuspended in IEMM containing 10 μM ROCK inhibitor (RI).
5. Membrane Potential Dye, Enteroid Assay B
Briefly, cells were washed 5 times in Bath 1 Buffer. Bath 1 Dye Solution was added and the cells were incubated for 25 min at room temperature. Following dye incubation, cells were washed 3 times in Chloride Free Dye Solution. Chloride transport was initiated by addition of Chloride Free Dye Stimulation Solution and the fluorescence signal was read for 15 min.

[2] = target: T1, CFTR-mediated chloride transport in human intestinal epithelial enteroid cells; experiment: Membrane potential dye, Enteroid Assay A; format: cell-based; details: for EC50: read-out: Ent. A EC50
Method in brief: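 Membrane potential dye (20 μM methyl oxonol, with 30 μM CaCCinh-A01 and 30 μM Chicago Sky Blue) loaded 25 min at room temperature into ROCK-inhibitor-seeded human enteroid cells. Chloride-free stimulation buffer triggered transport, followed by 15 min fluorescence. % Activity relative to 3 μM/3 μM/300 nM triple-combination control.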

[3] = percentage of chloride transport of triple combination control (3 μM N-[(6-amino-2-pyridyl)sulfonyl]-6-(3-fluoro-5-isobutoxy-phenyl)-2-[(4S)-2,2,4-trimethylpyrrolidin-1-yl]pyridine-3-carboxamide based)
[4] = enteroid cells incubated with test compound 18-24 hours, acute 10 μM forskolin and 300 nM N-[2,4-bis(1,1-dimethylethyl)-5-hydroxyphenyl]-1,4-dihydro-4-oxoquinoline-3-carboxamide

T1 sequence (P13569 with tags, fused parts or gaps DEL508-508): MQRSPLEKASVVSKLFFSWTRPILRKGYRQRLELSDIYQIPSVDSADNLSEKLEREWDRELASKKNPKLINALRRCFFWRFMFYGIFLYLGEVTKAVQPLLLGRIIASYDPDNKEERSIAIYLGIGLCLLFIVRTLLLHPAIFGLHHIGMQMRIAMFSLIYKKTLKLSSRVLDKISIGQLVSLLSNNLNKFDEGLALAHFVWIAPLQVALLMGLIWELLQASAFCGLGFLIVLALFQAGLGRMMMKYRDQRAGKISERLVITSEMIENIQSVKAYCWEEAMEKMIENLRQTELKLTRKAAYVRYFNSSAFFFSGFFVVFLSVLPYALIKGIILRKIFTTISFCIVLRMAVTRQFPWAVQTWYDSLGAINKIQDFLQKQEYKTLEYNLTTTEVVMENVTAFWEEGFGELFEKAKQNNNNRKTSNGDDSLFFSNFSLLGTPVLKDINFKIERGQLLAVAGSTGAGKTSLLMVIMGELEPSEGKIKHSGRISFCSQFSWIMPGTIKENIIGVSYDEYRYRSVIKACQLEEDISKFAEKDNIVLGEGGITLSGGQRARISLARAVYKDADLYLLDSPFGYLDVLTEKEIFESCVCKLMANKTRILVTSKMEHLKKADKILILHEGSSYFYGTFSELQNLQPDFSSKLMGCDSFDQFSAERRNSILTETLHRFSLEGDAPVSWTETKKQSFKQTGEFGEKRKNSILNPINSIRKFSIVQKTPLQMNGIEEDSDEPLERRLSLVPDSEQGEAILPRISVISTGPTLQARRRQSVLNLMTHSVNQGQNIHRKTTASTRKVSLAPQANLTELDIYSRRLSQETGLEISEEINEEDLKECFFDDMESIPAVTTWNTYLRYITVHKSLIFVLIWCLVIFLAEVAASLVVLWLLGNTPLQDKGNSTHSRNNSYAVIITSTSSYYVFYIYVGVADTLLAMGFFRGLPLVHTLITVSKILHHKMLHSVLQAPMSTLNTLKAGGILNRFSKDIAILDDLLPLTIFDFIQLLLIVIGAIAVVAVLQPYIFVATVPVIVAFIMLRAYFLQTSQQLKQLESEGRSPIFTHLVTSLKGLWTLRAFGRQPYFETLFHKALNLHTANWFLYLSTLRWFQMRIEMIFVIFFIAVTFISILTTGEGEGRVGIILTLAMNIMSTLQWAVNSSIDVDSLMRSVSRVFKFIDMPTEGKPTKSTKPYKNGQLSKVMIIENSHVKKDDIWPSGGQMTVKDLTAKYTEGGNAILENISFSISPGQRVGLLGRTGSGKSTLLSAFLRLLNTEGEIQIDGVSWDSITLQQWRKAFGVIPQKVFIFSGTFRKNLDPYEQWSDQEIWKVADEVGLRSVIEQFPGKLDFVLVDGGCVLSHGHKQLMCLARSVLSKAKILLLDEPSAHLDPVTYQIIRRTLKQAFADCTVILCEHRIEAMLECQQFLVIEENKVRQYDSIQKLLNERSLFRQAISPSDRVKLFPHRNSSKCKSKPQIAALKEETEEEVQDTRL

Structure (SMILES) | Ent. B Max Activity (%) [1] | EC50 [1] [nM] | Ent. A Max Activity (%) [2, 3] | further results
Cc1cccc(C)c1-c1cc2nc(n1)NS(=O)(=O)c1cccc(c1)C(=O)N1CCN(C3CC4(CCCC4)C3)[C@H](CC(C)C)[C@H](C1)O2 [Compound 119, (16S,17R)-12-(2,6-dimethylphenyl)-17-(2-methylpropyl)-18-{spiro[3.4]octan-2-yl}-15-oxa-8λ^6-thia-1,9,11,18,22-pentaazatetracyclo[14.4.1.13,7.110,14]tricosa-3(23),4,6,10(22),11,13-hexaene-2,8,8-trione] | +++ (+++ is >600%) | < 1000 | – | –
Cc1cccc(C)c1-c1cc2nc(n1)NS(=O)(=O)c1cccc(c1)C(=O)N1CCN(C)[C@H](CC(C)C)[C@H](C1)O2 [Compound 121, (16S,17R)-12-(2,6-Dimethylphenyl)-18-methyl-17-(2-methylpropyl)-15-oxa-8λ^6-thia-1,9,11,18,22-pentaazatetracyclo[14.4.1.13,7.110,14]tricosa-3(23),4,6,10(22),11,13-hexaene-2,8,8-trione] | +++ (+++ is >600%) | < 1000 | – | –
Cc1cccc(C)c1-c1cc2nc(n1)NS(=O)(=O)c1cccc(c1)C(=O)N1CCN(C(=O)CC(C)(C)C)[C@H](CC(C)C)[C@H](C1)O2 [Compound 122, (16S,17R)-18-(3,3-Dimethylbutanoyl)-12-(2,6-dimethylphenyl)-17-(2-methylpropyl)-15-oxa-8λ^6-thia-1,9,11,18,22-pentaazatetracyclo[14.4.1.13,7.110,14]tricosa-3(23),4,6,10(22),11,13-hexaene-2,8,8-trione] | +++ (+++ is >600%) | < 1000 | – | –
Cc1cccc(C)c1-c1cc2nc(n1)NS(=O)(=O)c1cccc(c1)C(=O)N1C[C@@H](CCC[C@@H]1CC(C)C)O2 (single isomer, unassigned) [Compound 179] | + (+ is <30%) | – | – | –
Cc1cccc(C)c1-c1cc2nc(n1)NS(=O)(=O)c1cccc(c1)C(=O)N1CCc3cc(C(C)(C)C)ccc3[C@H]1CO2 (single isomer, unassigned) [Compound 236, 8-tert-Butyl-17-(2,6-dimethylphenyl)-14-oxa-21λ^6-thia-3,18,20,27-tetraazapentacyclo[20.3.1.115,19.03,12.06,11]heptacosa-1(26),6(11),7,9,15(27),16,18,22,24-nonaene-2,21,21-trione] | +++ (+++ is >600%) | < 1000 | – | –
Cc1cccc(C)c1-c1cc2nc(n1)NS(=O)(=O)c1cccc(c1)C(=O)N1Cc3cc(C(C)(C)C)ccc3C(CO2)C1C (single isomer, unassigned) [Compound 219, 21-tert-butyl-12-(2,6-dimethylphenyl)-25-methyl-15-oxa-8λ^6-thia-1,9,11,26-tetraazapentacyclo[15.7.1.13,7.110,14.018,23]heptacosa-3,5,7(27),10,12,14(26),18,20,22-nonaene-2,8,8-trione] | +++ (+++ is >600%) | < 1000 | – | –
Cc1cccc(C)c1-c1cc2nc(n1)NS(=O)(=O)c1cccc(c1)C(=O)N1CCc3cc(C(C)(C)C)ccc3[C@@H](O2)[C@H]1CC(C)C [Compound 329] | +++ (+++ is >600%) | < 1000 | – | –
Cc1cccc(C)c1-c1cc2nc(n1)NS(=O)(=O)c1cccc(c1)C(=O)N1C[C@H](O2)c2ccccc2[C@@H]1CC(C)C (single isomer, unassigned) [Compound 191, 12-(2,6-Dimethylphenyl)-23-(2-methylpropyl)-15-oxa-8λ^6-thia-1,9,11,25-tetraazapentacyclo[14.7.1.13,7.110,14.017,22]hexacosa-3(26),4,6,10(25),11,13,17,19,21-nonaene-2,8,8-trione] | ++ (++ is 30-60%) | < 1000 | – | –
Cc1cccc(C)c1-c1cc2nc(n1)NS(=O)(=O)c1cccc(c1)C(=O)N1C[C@@H](CCC[C@@H]1CC(C)C)O2 (single isomer, unassigned) [Compound 180] | ++ (++ is 30-60%) | < 1000 | – | –
Cc1cccc(C)c1-c1cc2nc(n1)NS(=O)(=O)c1cnn(c1)CC(=O)N1Cc3ccccc3C(C1)O2 (stereo not shown) [Compound 347] | – | – | + (+ is <300%) | –
Cc1cccc(C)c1-c1cc2nc(n1)NS(=O)(=O)c1cccc(c1)C(=O)N1CCN(CC(C)C)C[C@@H]1CO2 [Compound 269] | – | – | +++ (+++ is >60%) | EC50 [2, 4]: < 1000 nM
Cc1cccc(C)c1-c1cc2nc(n1)NS(=O)(=O)c1cccc(c1)C(=O)N1C[C@@H](CNC[C@@H]1C(C)C)O2 [Compound 133, (16R,20S)-12-(2,6-Dimethylphenyl)-20-(propan-2-yl)-15-oxa-8λ^6-thia-1,9,11,18,22-pentaazatetracyclo[14.4.1.13,7.110,14]tricosa-3(23),4,6,10(22),11,13-hexaene-2,8,8-trione] | – | – | – | Ent. A Max Activity (%) ([2]; Enteroid Assay A): +++ (+++ is >600%); EC50 ([2]; Enteroid Assay A): < 1000 nM
Cc1cccc(C)c1-c1cc2nc(n1)NS(=O)(=O)c1cccc(c1)C(=O)N1CC3C(CCCN3C)[C@H](C1)O2 (single isomer, unassigned) [Compound 204, 12-(2,6-dimethylphenyl)-21-methyl-15-oxa-8λ^6-thia-1,9,11,21,25-pentaazapentacyclo[14.7.1.13,7.110,14.017,22]hexacosa-3,5,7(26),10(25),11,13-hexaene-2,8,8-trione] | – | – | – | EC50 ([2]; Enteroid Assay A): 1000 to 3000 nM
Cc1cccc(C)c1-c1cc2nc(n1)NS(=O)(=O)c1cccc(c1)C(=O)N1CCN(C(=O)CC3CCCCC3)C[C@@H]1CO2 [Compound 255] | – | – | ++ (++ is 30-60%) | EC50 [2, 4]: < 1000 nM
Cc1cccc(C)c1-c1cc2nc(n1)NS(=O)(=O)c1cccc(c1)CN1CC(COCC(C)(C)C)CC(C1)O2 (stereo not shown) [Compound 344] | – | – | ++ (++ is 30-60%) | EC50 [2, 4]: < 1000 nM
Cc1cccc(C)c1-c1cc2nc(n1)NS(=O)(=O)c1cccc(c1)C(=O)N1CCN(C(=O)CCN3CCCC3)CC1CO2 (stereo not shown) [Compound 308] | – | – | + (+ is <300%) | –
Cc1cccc(C)c1-c1cc2nc(n1)NS(=O)(=O)c1cccc(c1)C(=O)N1CCN(Cc3ccccc3O)CC(C1)O2 (stereo not shown) [Compound 57] | – | – | +++ (+++ is >60%) | EC50 [2, 4]: < 1000 nM
Cc1cccc(C)c1-c1cc2nc(n1)NS(=O)(=O)c1cccc(c1)C(=O)N1CC(C)(C)CC(O2)C1CC(C)C (single isomer, unassigned) [Compound 233, 18-(2,6-dimethylphenyl)-5,5-dimethyl-22-(2-methylpropyl)-2-oxa-14λ^6-thia-7,15,17,20-tetraazatetracyclo[14.3.1.13,7.19,13]docosa-1(20),9(21),10,12,16,18-hexaene-8,14,14-trione] | – | – | – | EC50 ([2]; Enteroid Assay A): < 1000 nM
Cc1cccc(C)c1-c1cc2nc(n1)NS(=O)(=O)c1cncc(c1)C(=O)N1Cc3ccccc3[C@H](C1)O2 [Compound 361] | – | – | + (+ is <300%) | –
CCCN1CCN2C[C@@H](C1)Oc1cc(-c3c(C)cccc3C)nc(n1)NS(=O)(=O)c1cccc(c1)C2=O [Compound 31] | – | – | – | Ent. A Max Activity (%) ([2]; Enteroid Assay A): +++ (+++ is >600%); EC50 ([2]; Enteroid Assay A): < 1000 nM
Cc1cccc(C)c1-c1cc2nc(n1)NS(=O)(=O)c1cccc(c1)C(=O)N1CCN(Cc3ccccc3)CC(O2)C1CC(C)C (single isomer, unassigned) [Compound 88, 18-Benzyl-12-(2,6-dimethylphenyl)-21-(2-methylpropyl)-15-oxa-8λ^6-thia-1,9,11,18,22-pentaazatetracyclo[14.4.1.13,7.110,14]tricosa-3(23),4,6,10(22),11,13-hexaene-2,8,8-trione] | – | – | – | Ent. A Max Activity (%) ([2]; Enteroid Assay A): ++ (++ is 30-60%); EC50 ([2]; Enteroid Assay A): < 1000 nM
Cc1cccc(C)c1-c1cc2nc(n1)NS(=N)(=O)c1cccc(c1)C(=O)N1CCN(Cc3ccccc3)CC(C1)O2 (stereo not shown) [Compound 246] | – | – | – | Ent. A Max Activity (%) ([2]; Enteroid Assay A): ++ (++ is 30-60%); EC50 ([2]; Enteroid Assay A): 1000 to 3000 nM
Cc1cccc(C)c1-c1cc2nc(n1)NS(=O)(=O)c1cccc(c1)C(=O)N1CCN(CC(C)C)CC(C1)O2 (stereo not shown) [Compound 44, 12-(2,6-Dimethylphenyl)-18-isobutyl-8,8-dioxo-15-oxa-8λ^6-thia-1,9,11,18,22-pentazatetracyclo[14.4.1.13,7.110,14]tricosa-3,5,7(23),10(22),11,13-hexaen-2-one] | – | – | +++ (+++ is >60%) | EC50 [2, 4]: < 1000 nM
